The results in this text go back to US9155706B2, “Pharmaceutical composition” (Novartis AG, priority 2010, dated 2015).

What is called half-life is the time in which the quantity being followed falls by half. The low end stands for fast loss, the high end for slow loss. In general, Cmax refers to the highest concentration seen after dosing. One may read the AUC(0-t) as exposure summed from dosing to a finite time, without extrapolation to infinity. A low value points to low exposure. The term Tmax denotes the time from dosing to the highest level.

Data set [1] can be described thus: Photostability: light exposure under ICH Q1B conditions, impurities by HPLC. It counts as physicochemical. The protocol: Uncoated tablets, 0.5, 1 and 2 mg were exposed to ICH Photostability conditions and tested to provide baseline impurity information for comparison.
A short description of data set [2]: Toxic effects at high doses (statement). It counts as in vivo. The settings on record: when administered in high doses.
Data set [3] is described as follows: Exposure and absorption upon in vivo administration (statement).
The nature of data set [4]: Desolvation during handling and formulation (statement). The data set is classed as physicochemical.
The nature of data set [5]: Solubility (comparative statement). It counts as physicochemical.
Data set [6] can be described thus: Repeat dose toxicokinetics and toxicology, oral gavage, DMSO solvate of Compound, rat. The note with it: for Cmax End of Study: Sprague Dawley, rat, in vivo, po, 0.25 mg/m2. An excerpt:
(§1) The pharmacokinetics, absorption, distribution, metabolism and elimination of N-{3-[3-cyclopropyl-5-(2-fluoro-4-iodo-phenylamino)-6, 8-dimethyl-2,4,7-trioxo-3,4,6,7-tetrahydro-2H-pyrido[4,3-d]pyrimidin-1-yl]phenyl}acetamide and solvates thereof, including the dimethyl sulfoxide solvate (collectively referred to as “Compound” when used in connection with animal models or human clinical trials), were investigated in a series of in vitro investigations and with in vivo oral (gavage) and IV studies in the Balb/c mouse, Sprague Dawley rat (unless otherwise stated), beagle dog and cynomolgus monkey using unlabeled and [14C]-labeled Compound. A list of these studies is included, along with subsequently obtained human clinical results, in Table 1 below. For in vivo studies, various formulations were used. For oral dosing, solutions or suspensions were administered.
(§2) Dose range studies in rats at doses up to 1 mg/kg/day for 14 days and in dogs at doses up to 0.5 mg/kg/day (or 10 mg/m2/day) for 10 days were conducted prior to the studies.
In vivo toxicology studies were conducted in Sprague Dawley rats and beagle dogs by oral gavage (Table 3). Studies were conducted using the DMSO solvate of Compound formulated as a suspension in 1.5% hydroxypropylmethylcellulose, 5% mannitol, and 0.2% sodium lauryl sulfate. For all toxicology studies, doses are expressed based on body surface area (mg/m2). In general, to convert mg/m2 doses to mg/kg, divide the doses by 8 for rats and 20 for dogs.

For data set [7] the following is noted: female, beagle, dog, in vivo, po.
Description: as §1, §2
In vivo toxicology studies were conducted in Sprague Dawley rats and beagle dogs by oral gavage (Table 3). Studies were conducted using the DMSO solvate of Compound formulated as a suspension in 1.5% hydroxypropylmethylcellulose, 5% mannitol, and 0.2% sodium lauryl sulfate. For all toxicology studies, doses are expressed based on body surface area (mg/m2). […]

Data set [8] can be described thus: clinical. The note with it: human, plasma, oral, 2 mg.
Description: (§3) Preliminary PK data was obtained in subjects with solid tumors following single-and repeat-dose oral administration of Compound tablets. The dose-escalation part of the first-time-in-human study (FTIH), involved administration of Compound in one of 3 main dosing regimens: • QD dosing with the designated dose for 21 days, followed by 7 days without drug; • Administration of a loading dose (LD) on both Day 1 and Day 2, or on Day 1 only, followed by continuous QD dosing with the designated dose; or • Administration of continuous QD dosing without a loading dose.
(§4) Additional blood samples were taken pre-dose on Day 15 of Cycle 1 and Day 1 of further cycles in Part 2 and Part 3 to assess steady state trough levels of Compound.
Data set [9] can be described thus: Single-dose (Day 1) pharmacokinetics of Compound tablets, first-time-in-human study. The settings on record: fasting; for AUC(0-t): AUC (0-24); for Tmax: median (range).
Description: Preliminary PK data was obtained in subjects with solid tumors following single-and repeat-dose oral administration of Compound tablets.
The nature of data set [10]: Repeat-dose (Day 15) pharmacokinetics of Compound tablets, first-time-in-human study. The note with it: individual values.
Description: as §3, §4
Where [11] appears, read: single dose Day 1, oral tablets, 0.5 mg, individual values.
Setting [12] is: single dose Day 1, oral tablets, 1.0 mg, individual values.

Where “and” joins values, the source holds several entries; their conditions need not be identical. Equal entries are not always repeated. Entries after “also recorded” stand apart in the source; their conditions may differ. Where two headings read alike, the source gives them in different places.

For the compound `CC(=O)Nc1cccc(-n2c(=O)n(C3CC3)c(=O)c3c(Nc4ccc(I)cc4F)n(C)c(=O)c(C)c32)c1` [Compound A, N-{3-[3-cyclopropyl-5-(2-fluoro-4-iodo-phenylamino)-6,8-dimethyl-2,4,7-trioxo-3,4,6,7-tetrahydro-2H-pyrido[4,3-d]pyrimidin-1-yl]phenyl}acetamide dimethyl sulfoxide solvate], the “photo-stability (in words)” value in data set [1] is on record as “sensitive to photo-induced degradation; also recorded: can suffer from photo-instability”. Besides, in data set [2], the toxic effects result is on record as “can cause toxic effects when administered in high doses”. In addition, the exposure and absorption entry in data set [3] is “poor exposure and absorption”. Further, the “desolvation to unsolvated Compound B” value in data set [4] is recorded as “can undergo desolvation”.
Take `CC(=O)Nc1cccc(-n2c(=O)n(C3CC3)c(=O)c3c(Nc4ccc(I)cc4F)n(C)c(=O)c(C)c32)c1` [Compound B, N-{3-[3-cyclopropyl-5-(2-fluoro-4-iodo-phenylamino)-6,8-dimethyl-2,4,7-trioxo-3,4,6,7-tetrahydro-2H-pyrido[4,3-d]pyrimidin-1-yl]phenyl}acetamide]: the “solubility compared with Compound A” value in [5] was “much less soluble than Compound A”.
With `CC(=O)Nc1cccc(-n2c(=O)n(C3CC3)c(=O)c3c(Nc4ccc(I)cc4F)n(C)c(=O)c(C)c32)c1` [Compound, N-{3-[3-cyclopropyl-5-(2-fluoro-4-iodo-phenylamino)-6,8-dimethyl-2,4,7-trioxo-3,4,6,7-tetrahydro-2H-pyrido[4,3-d]pyrimidin-1-yl]phenyl}acetamide], the “maximum tolerated dose (MTD)” value in [6] (Rat, 3 weeks, oral, two doses marked MTD, sex shown by bolding that is lost) is 0.5 mg/m^2/day and 1 mg/m^2/day. The “Cmax End of Study” value in data set [6] (female) is on record as 8.03 ng/mL; in [6] (male) it was 5.34 ng/mL; in data set [7] (0.3 mg/m2) it was 7.24 ng/mL; in data set [7] (0.45 mg/m2), 9.78 ng/mL. Moreover, in data set [8], the half-life was about 120 h. The C24 entry in [9] (Day 1, oral tablets, 6.0 mg loading dose, mean (CV %) and range) was “(3.4-11.1) ng/mL”; in [9] (Day 1, oral tablets, 8.0 mg loading dose, mean (CV %) and range) it was “(2.98-12.1) ng/mL”; in data set [9] (Day 1, oral tablets, 10.0 mg loading dose, mean (CV %) and range), “(21.0-29.0) ng/mL”; in data set [9] (setting [11]), 0 ng/mL and 0.31 ng/mL; in data set [9] (setting [12]) it was 0.38 ng/mL and 0.27 ng/mL; in data set [9] (single dose Day 1, oral tablets, 2.0 mg, mean (CV %) and range), “(1.15-1.93) ng/mL”. The C24 entry is listed as “(1.25-3.10) ng/mL” in data set [9] (single dose Day 1, oral tablets, 2.5 mg, mean (CV %) and range); “(0.75-13.4) ng/mL” in data set [9] (single dose Day 1, oral tablets, 3.0 mg, mean (CV %) and range); “(5.53-14.9) ng/mL” in data set [9] (single dose Day 1, oral tablets, 4.0 mg, mean (CV %) and range). The Cmax in data set [9] (human, plasma, po, 0.5 mg, Cmax, single dose Day 1, oral tablets, 0.5 mg, individual values) is 0.85 ng/mL; in [9] (human, plasma, po, 1 mg, Cmax, single dose Day 1, oral tablets, 1.0 mg, individual values), 1.71 ng/mL; in [9] (human, plasma, po, 2 mg, Cmax, single dose Day 1, oral tablets, 2.0 mg, mean (CV %) and range), 5.4 to 8.81 ng/mL; in [9] (human, plasma, po, 2.5 mg, Cmax, single dose Day 1, oral tablets, 2.5 mg, mean (CV %) and range), 6.7 to 16.2 ng/mL; in [9] (human, plasma, po, 3 mg, Cmax, single dose Day 1, oral tablets, 3.0 mg, mean (CV %) and range), 2.82 to 22.9 ng/mL; in data set [9] (human, plasma, po, 4 mg, Cmax, single dose Day 1, oral tablets, 4.0 mg, mean (CV %) and range) it was 16.3 to 34.2 ng/mL. In addition, the Cmax in data set [9] (human, plasma, po, 6 mg, Cmax, Day 1, oral tablets, 6.0 mg loading dose, mean (CV %) and range) is 6.91 to 37.2 ng/mL; in data set [9] (human, plasma, po, 8 mg, Cmax, Day 1, oral tablets, 8.0 mg loading dose, mean (CV %) and range) it was 4.28 to 32 ng/mL; in data set [9] (human, plasma, po, 10 mg, Cmax, Day 1, oral tablets, 10.0 mg loading dose, mean (CV %) and range), 65.1 to 87.8 ng/mL; in data set [9] (setting [12]) it was 1.96 ng/mL. The AUC(0-t) in data set [9] (human, plasma, po, 1 mg, single dose Day 1, oral tablets, 1.0 mg, individual values) was 13.5 ng·h/mL; in data set [9] (human, plasma, po, 2 mg, single dose Day 1, oral tablets, 2.0 mg, mean (CV %) and range) it was 44.2 to 77.4 ng·h/mL; in data set [9] (human, plasma, po, 2.5 mg, single dose Day 1, oral tablets, 2.5 mg, mean (CV %) and range), 47.3 to 95.9 ng·h/mL; in [9] (human, plasma, po, 3 mg, single dose Day 1, oral tablets, 3.0 mg, mean (CV %) and range), 27.6 to 188 ng·h/mL; in data set [9] (human, plasma, po, 4 mg, single dose Day 1, oral tablets, 4.0 mg, mean (CV %) and range) it was 167 to 275 ng·h/mL; in data set [9] (human, plasma, po, 6 mg, Day 1, oral tablets, 6.0 mg loading dose, mean (CV %) and range), 96.7 to 320 ng·h/mL. In addition, the AUC(0-t) in data set [9] (human, plasma, po, 8 mg, Day 1, oral tablets, 8.0 mg loading dose, mean (CV %) and range) fell in the range of 62.9 to 308 ng·h/mL; in [9] (human, plasma, po, 10 mg, Day 1, oral tablets, 10.0 mg loading dose, mean (CV %) and range), 773 to 979 ng·h/mL. For the same compound, the Tmax in data set [9] (human, plasma, po, 2 mg, single dose Day 1, oral tablets, 2.0 mg) was in the range of 1.5 to 2 h; in data set [9] (human, plasma, po, 2.5 mg, single dose Day 1, oral tablets, 2.5 mg) it was 1 to 2 h; in data set [9] (human, plasma, po, 3 mg, single dose Day 1, oral tablets, 3.0 mg), 0.5 to 3 h; in data set [9] (human, plasma, po, 6 mg, Day 1, oral tablets, 6.0 mg loading dose) it was 1.05 to 8.08 h; in [9] (human, plasma, po, 8 mg, Day 1, oral tablets, 8.0 mg loading dose) it was 1 to 24 h; in [9] (human, plasma, po, 10 mg, Day 1, oral tablets, 10.0 mg loading dose) it was 1 to 2 h. The “AUC (0-24)” value in data set [9] (setting [11]) is 2.13 ng·h/mL and 9.69 ng·h/mL; in data set [9] (setting [12]) it was 12.2 ng·h/mL. Besides, the “AR (Accumulation Ratio)” value is 28.3 and 10.2 in data set [10] (repeat dose Day 15, 0.50 mg); 18.1 and 7.8 in data set [10] (repeat dose Day 15, 1 mg); 2.42 and 3.45 in data set [10] (repeat dose Day 15, 4 mg). The “T1/2, eff (Effective Half-Life)” value in data set [10] (repeat dose Day 15, 0.50 mg) is 461 h and 161 h; in data set [10] (repeat dose Day 15, 1 mg), 293 h and 122 h; in data set [10] (repeat dose Day 15, 4 mg), 48.5 h.
